# What was measured:
# Test in all cases: KINOMEscan competition binding
# Conditions in all cases: compound 10.0 µM
# [1] = biological target: RIOK1 (human) (UniProt Q9BRS2)
# [2] = tested on: FLT3 (human), P36888 [N841I]
# [3] = biological target: PIM2 (human) (UniProt Q9P1W9)
# [4] = biological target: GAK (human) (UniProt O14976)
# [5] = biological target: KIT (human) (UniProt P10721)
# [6] = tested on: EGFR (human), P00533 [G719S]
# [7] = biological target: BMPR1B (human) (UniProt O00238)
# [8] = tested on: EGFR (human), P00533 [747-751 del / S ins]
# [9] = biological target: CSNK1G1 (human) (UniProt Q9HCP0)
# [10] = biological target: CSNK2A2 (human) (UniProt P19784)
# [11] = biological target: PIM3 (human) (UniProt Q86V86)
# [12] = biological target: TNIK (human) (UniProt Q9UKE5)
# [13] = biological target: RPS6KA2 KD2 (human) (UniProt Q15349)
# [14] = biological target: SRPK3 (human) (UniProt Q9UPE1)
# [15] = biological target: PIP4K2B (human) (UniProt P78356)
# [16] = biological target: TLK1 (human) (UniProt Q9UKI8)
# [17] = biological target: BMP2K (human) (UniProt Q9NSY1)
# [18] = biological target: SRPK2 (human) (UniProt P78362)
# [19] = tested on: KIT (human), P10721 [D816V]
# [20] = biological target: DAPK2 (human) (UniProt Q9UIK4)
# [21] = biological target: RPS6KA5 KD2 (human) (UniProt O75582)
# [22] = biological target: RIOK2 (human) (UniProt Q9BVS4)
# [23] = biological target: CDK7 (human) (UniProt P50613)
# [24] = biological target: MAP2K4 (human) (UniProt P45985)
# [25] = biological target: STK24 (human) (UniProt Q9Y6E0)
# [26] = biological target: MAP4K4 (human) (UniProt O95819)
# [27] = biological target: CSNK2A1 (human) (UniProt P68400)
# [28] = biological target: TAOK1 (human) (UniProt Q7L7X3)
# [29] = biological target: PHKG2 (human) (UniProt P15735)
# [30] = tested on: KIT (human), P10721 [V559D]
# [31] = biological target: ACVR2A (human) (UniProt P27037)
# [32] = biological target: DAPK3 (human) (UniProt O43293)
# [33] = biological target: MYLK (human) (UniProt Q15746)
# [34] = biological target: STK17B (human) (UniProt O94768)
# [35] = biological target: MAPK15 (human) (UniProt Q8TD08)
# [36] = biological target: DYRK1B (human) (UniProt Q9Y463)
# [37] = biological target: PIK3CG (human) (UniProt P48736)
# [38] = biological target: AURKB (human) (UniProt Q96GD4)
# [39] = biological target: CSNK1E (human) (UniProt P49674)
# [40] = biological target: MINK1 (human) (UniProt Q8N4C8)
# [41] = biological target: TTK (human) (UniProt P33981)
# [42] = tested on: KIT (human), P10721 [V559D/V654A]
# TTK (human), sequence (P33981 whole entry, looked up): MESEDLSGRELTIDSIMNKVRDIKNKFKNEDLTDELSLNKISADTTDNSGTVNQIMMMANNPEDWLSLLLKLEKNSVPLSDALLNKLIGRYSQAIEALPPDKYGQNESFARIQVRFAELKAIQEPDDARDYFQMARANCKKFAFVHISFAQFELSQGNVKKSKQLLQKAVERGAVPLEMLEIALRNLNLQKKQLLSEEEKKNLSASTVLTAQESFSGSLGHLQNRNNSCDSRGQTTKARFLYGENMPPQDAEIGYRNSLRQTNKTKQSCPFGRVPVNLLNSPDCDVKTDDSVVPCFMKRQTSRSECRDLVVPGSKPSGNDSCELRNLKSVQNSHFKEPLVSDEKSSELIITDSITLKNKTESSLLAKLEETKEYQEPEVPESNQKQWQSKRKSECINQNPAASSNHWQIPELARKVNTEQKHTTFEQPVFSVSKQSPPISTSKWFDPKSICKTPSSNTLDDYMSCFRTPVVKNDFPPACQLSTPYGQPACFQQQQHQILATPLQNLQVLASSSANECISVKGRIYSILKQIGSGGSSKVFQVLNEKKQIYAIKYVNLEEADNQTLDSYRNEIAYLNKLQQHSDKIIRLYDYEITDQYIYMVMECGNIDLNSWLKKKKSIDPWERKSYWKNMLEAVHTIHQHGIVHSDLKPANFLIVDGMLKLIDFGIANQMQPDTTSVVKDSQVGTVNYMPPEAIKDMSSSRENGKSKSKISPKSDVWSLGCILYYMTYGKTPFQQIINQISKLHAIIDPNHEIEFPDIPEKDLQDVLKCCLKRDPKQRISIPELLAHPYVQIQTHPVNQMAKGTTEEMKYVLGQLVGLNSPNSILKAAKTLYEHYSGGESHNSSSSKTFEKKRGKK
# RIOK2 (human), sequence (Q9BVS4 whole entry, looked up): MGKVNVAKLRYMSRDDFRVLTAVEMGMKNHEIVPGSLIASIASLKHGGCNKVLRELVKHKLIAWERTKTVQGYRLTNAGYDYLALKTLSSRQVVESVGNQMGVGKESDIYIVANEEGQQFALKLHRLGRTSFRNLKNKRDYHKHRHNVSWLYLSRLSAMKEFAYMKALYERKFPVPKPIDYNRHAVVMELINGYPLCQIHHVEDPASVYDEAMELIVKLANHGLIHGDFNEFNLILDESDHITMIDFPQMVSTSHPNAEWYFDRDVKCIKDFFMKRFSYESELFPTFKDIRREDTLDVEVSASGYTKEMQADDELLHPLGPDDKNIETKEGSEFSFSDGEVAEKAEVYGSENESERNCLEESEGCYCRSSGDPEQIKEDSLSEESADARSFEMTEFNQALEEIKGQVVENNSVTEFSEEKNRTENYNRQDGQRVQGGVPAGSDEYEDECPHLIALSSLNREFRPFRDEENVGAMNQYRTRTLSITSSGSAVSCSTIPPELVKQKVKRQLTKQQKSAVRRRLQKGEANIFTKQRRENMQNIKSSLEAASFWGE
# MYLK (human), sequence (Q15746 whole entry, looked up): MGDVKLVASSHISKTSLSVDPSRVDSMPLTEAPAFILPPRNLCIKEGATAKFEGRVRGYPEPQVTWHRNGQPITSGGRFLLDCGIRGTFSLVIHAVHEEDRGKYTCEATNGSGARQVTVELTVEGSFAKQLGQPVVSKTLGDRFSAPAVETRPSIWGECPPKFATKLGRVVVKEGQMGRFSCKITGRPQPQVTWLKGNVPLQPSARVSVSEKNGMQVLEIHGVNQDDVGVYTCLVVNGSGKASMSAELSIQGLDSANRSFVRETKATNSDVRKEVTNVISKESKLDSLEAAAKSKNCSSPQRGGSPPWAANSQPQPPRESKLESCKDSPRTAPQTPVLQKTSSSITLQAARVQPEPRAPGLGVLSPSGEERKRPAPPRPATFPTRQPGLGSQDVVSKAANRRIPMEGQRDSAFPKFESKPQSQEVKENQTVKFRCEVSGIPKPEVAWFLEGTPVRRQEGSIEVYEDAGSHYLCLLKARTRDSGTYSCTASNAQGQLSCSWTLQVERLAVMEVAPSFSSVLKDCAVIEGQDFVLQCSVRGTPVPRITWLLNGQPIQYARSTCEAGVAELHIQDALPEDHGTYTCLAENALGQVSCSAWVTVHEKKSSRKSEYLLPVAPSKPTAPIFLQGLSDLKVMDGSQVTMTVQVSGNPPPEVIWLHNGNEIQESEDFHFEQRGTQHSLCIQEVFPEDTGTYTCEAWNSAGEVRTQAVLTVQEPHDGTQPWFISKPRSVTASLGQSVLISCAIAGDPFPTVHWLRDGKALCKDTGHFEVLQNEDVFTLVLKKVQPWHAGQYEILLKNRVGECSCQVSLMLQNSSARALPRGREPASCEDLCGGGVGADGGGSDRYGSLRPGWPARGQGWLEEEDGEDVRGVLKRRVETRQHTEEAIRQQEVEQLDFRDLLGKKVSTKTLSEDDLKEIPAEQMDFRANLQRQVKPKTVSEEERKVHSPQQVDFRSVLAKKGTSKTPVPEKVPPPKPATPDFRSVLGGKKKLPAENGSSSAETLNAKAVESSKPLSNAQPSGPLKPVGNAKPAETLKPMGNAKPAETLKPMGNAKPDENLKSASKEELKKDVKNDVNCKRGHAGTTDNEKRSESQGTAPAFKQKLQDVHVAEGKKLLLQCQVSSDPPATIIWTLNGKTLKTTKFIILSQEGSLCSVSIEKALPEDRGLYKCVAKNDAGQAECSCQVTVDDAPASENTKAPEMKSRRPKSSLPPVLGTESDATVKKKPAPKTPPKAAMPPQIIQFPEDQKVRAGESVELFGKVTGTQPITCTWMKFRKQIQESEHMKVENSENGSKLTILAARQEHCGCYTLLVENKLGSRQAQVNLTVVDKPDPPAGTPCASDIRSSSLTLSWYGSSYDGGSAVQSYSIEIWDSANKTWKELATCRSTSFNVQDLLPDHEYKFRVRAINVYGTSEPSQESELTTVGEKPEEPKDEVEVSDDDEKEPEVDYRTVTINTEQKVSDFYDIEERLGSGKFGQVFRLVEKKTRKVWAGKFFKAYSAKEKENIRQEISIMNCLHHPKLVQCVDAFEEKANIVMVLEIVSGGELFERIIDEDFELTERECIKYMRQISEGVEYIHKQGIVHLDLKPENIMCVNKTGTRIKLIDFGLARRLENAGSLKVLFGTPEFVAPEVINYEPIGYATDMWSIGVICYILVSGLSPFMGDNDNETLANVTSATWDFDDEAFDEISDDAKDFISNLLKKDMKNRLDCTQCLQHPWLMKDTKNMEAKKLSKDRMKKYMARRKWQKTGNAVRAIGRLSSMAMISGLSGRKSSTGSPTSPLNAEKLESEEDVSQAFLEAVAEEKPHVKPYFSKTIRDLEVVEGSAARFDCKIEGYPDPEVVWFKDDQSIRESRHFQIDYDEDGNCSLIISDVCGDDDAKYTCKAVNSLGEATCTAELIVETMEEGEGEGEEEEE
# RPS6KA5 KD2 (human), sequence (O75582 whole entry, looked up): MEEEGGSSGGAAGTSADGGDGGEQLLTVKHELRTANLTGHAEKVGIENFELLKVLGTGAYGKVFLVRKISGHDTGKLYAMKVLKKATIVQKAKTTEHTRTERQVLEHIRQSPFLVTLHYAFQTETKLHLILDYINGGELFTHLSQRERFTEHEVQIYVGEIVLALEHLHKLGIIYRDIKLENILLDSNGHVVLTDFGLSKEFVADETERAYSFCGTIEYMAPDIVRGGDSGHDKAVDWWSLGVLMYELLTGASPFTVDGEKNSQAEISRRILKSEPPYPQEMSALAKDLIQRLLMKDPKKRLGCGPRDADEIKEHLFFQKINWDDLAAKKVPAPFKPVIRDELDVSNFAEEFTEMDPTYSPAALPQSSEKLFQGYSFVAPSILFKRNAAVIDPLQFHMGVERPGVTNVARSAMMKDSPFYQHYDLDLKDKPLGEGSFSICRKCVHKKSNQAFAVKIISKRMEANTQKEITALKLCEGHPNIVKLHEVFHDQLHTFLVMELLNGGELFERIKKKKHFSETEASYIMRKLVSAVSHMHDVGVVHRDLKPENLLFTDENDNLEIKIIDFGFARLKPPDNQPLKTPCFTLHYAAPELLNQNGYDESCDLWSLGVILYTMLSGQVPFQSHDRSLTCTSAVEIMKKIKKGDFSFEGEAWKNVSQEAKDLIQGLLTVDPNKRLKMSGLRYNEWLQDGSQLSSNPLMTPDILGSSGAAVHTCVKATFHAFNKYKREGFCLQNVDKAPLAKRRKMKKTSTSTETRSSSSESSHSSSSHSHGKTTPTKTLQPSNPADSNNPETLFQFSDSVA
# PHKG2 (human), sequence (P15735 whole entry, looked up): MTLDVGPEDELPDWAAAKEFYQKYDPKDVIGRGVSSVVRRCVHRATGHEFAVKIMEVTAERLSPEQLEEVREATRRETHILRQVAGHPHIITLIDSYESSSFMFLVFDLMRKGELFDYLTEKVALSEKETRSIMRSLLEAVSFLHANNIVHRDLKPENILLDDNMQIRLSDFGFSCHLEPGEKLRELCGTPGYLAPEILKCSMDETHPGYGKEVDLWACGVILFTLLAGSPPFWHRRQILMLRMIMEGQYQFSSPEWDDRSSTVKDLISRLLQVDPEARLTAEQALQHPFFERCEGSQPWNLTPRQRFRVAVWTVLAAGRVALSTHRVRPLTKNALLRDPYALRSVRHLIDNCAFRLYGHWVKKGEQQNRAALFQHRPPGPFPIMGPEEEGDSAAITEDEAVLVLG
smiles,measurement,setting,value
COc1cc(N2CCN(C)CC2)ccc1Nc1ncc2c(n1)N(C)c1sccc1C(=O)N2C,"kinase still bound, per cent of control",[1],71%
same,"kinase still bound, per cent of control",[2],78%
same,"kinase still bound, per cent of control",[3],86%
same,"kinase still bound, per cent of control",[4],24%
same,"kinase still bound, per cent of control",[5],66%
same,"kinase still bound, per cent of control",[6],72%
same,"kinase still bound, per cent of control",[7],91%
same,"kinase still bound, per cent of control",[8],66%
same,"kinase still bound, per cent of control",[9],89%
same,"kinase still bound, per cent of control",[10],52%
same,"kinase still bound, per cent of control",[11],62%
same,"kinase still bound, per cent of control",[12],55%
same,"kinase still bound, per cent of control",[13],15%
same,"kinase still bound, per cent of control",[14],67%
same,"kinase still bound, per cent of control",[15],89%
same,"kinase still bound, per cent of control",[16],74%
same,"kinase still bound, per cent of control",[17],98%
same,"kinase still bound, per cent of control",[18],100%
same,"kinase still bound, per cent of control",[19],100%
same,"kinase still bound, per cent of control",[20],50%
same,"kinase still bound, per cent of control",[21],57%
same,"kinase still bound, per cent of control",[22],100%
same,"kinase still bound, per cent of control",[23],67%
same,"kinase still bound, per cent of control",[24],71%
same,"kinase still bound, per cent of control",[25],72%
same,"kinase still bound, per cent of control",[26],99%
same,"kinase still bound, per cent of control",[27],82%
same,"kinase still bound, per cent of control",[28],18%
same,"kinase still bound, per cent of control",[29],46%
same,"kinase still bound, per cent of control",[30],71%
same,"kinase still bound, per cent of control",[31],100%
same,"kinase still bound, per cent of control",[32],42%
same,"kinase still bound, per cent of control",[33],17%
same,"kinase still bound, per cent of control",[34],100%
same,"kinase still bound, per cent of control",[35],87%
same,"kinase still bound, per cent of control",[36],63%
same,"kinase still bound, per cent of control",[37],73%
same,"kinase still bound, per cent of control",[38],56%
same,"kinase still bound, per cent of control",[39],91%
same,"kinase still bound, per cent of control",[40],46%
same,"kinase still bound, per cent of control",[41],13%
same,"kinase still bound, per cent of control",[42],91%
